In US9066894B2, “Carbohydrate binding molecules” (priority 2008, dated 2015):
Where “and” joins values, the source holds several entries; their conditions need not be identical. Equal values may be shown once.

Target: isolated CBM40 from V. cholerae sialidase (Vibrio cholerae serotype O1, UniProt P0C6E9)
Settings: ITC, 25° C.; for n (number of binding sites): 10 mM HEPES pH7.4, 0.15M NaCl

Sequence of isolated CBM40 from V. cholerae sialidase (P0C6E9 25-216): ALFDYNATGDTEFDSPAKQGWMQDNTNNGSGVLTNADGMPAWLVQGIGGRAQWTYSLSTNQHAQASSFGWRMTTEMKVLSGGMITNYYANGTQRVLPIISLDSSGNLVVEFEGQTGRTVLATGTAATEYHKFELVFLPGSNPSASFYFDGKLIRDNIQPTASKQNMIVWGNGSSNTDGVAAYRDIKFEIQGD

SMILES	Ka	Kd	TΔS	ΔG	ΔH	n (number of binding sites)
CC(=O)N[C@H]1[C@H]([C@H](O)[C@H](O)CO)O[C@@](O[C@H]2[C@@H](O)[C@@H](CO)O[C@@H](O[C@H]3[C@H](O)[C@@H](O)C(O)O[C@@H]3CO)[C@@H]2O)(C(=O)O)C[C@@H]1O (stereo partly drawn) [3′SL, 3′sialyllactose]	5.48 ± 0.05 10^−4M	18 µM	-9.8 kcal/mol	-6.5 kcal/mol	-16.3 ± 0.05 kcal/mol	0.96 ± 0.002
CC(=O)N[C@H]1[C@H](O[C@H]2[C@@H](O)[C@@H](CO)O[C@@H](O[C@@H]([C@H](O)[C@@H](O)C=O)[C@H](O)CO)[C@@H]2O)O[C@H](CO[C@]2(C(=O)O)C[C@H](O)[C@@H](NC(C)=O)[C@H]([C@H](O)[C@H](O)CO)O2)[C@@H](O)[C@@H]1O[C@@H]1O[C@H](CO)[C@H](O)[C@H](O[C@]2(C(=O)O)C[C@H](O)[C@@H](NC(C)=O)[C@H]([C@H](O)[C@H](O)CO)O2)[C@H]1O [DSLNT, disialyl-lacto-N-tetraose]	7.8 ± 0.06 10^−4M	13 µM	-17.3 kcal/mol	-6.7 kcal/mol	-24 kcal/mol and -24.0 ± 0.007 kcal/mol	0.57 and 0.57 ± 0.001
CC(=O)N[C@H]1[C@H]([C@H](O)[C@H](O)CO)O[C@@](OC[C@H]2O[C@@H](O[C@H]3[C@H](O)[C@@H](O)[C@H](O)O[C@@H]3CO)[C@H](O)[C@@H](O)[C@H]2O)(C(=O)O)C[C@@H]1O [6′SL, 6′sialyllactose]	5.16 ± 0.03 10^−4M	19 µM	-3.5 kcal/mol	-6.4 kcal/mol	-9.9 ± 0.002 kcal/mol	1.02 ± 0.001
CC(=O)N[C@H]1[C@H]([C@H](O)[C@H](O)CO)O[C@@](O[C@H](CO)[C@@H](O)[C@@H]2O[C@@](O[C@H]3[C@@H](O)[C@@H](CO)O[C@@H](O[C@H]4[C@H](O)[C@@H](O)C(O)O[C@@H]4CO)[C@@H]3O)(C(=O)O)C[C@H](O)[C@H]2NC(C)=O)(C(=O)O)C[C@@H]1O (stereo partly drawn) [DSL, disialyllactose]	10.2 ± 0.01 10^−4M	9.8 µM	-5.7 kcal/mol	-6.8 kcal/mol	-12.5 kcal/mol and -12.5 ± 0.003 kcal/mol	0.92 and 0.92 ± 0.001
